Laboratory results from patent publication US10780101B2, “Amide derivatives of squalamine for the treatment of infections” (VIRBAC, priority 2016, dated 2020).
In brackets after ≈: the same amount, converted by molar mass. Read-outs that look alike come from different tables or passages of the source.

Columns and labels:
E. coli Animal (1956) = test: MIC determination, E. coli animal (1956); assay type: cell-based; conditions: Escherichia coli; Gram-negative; Mueller-Hinton medium, 24 h at 37° C.
Protocol: (§1) A negative control (2 mL of sterile culture medium)
(§2) A positive control (1940 μL of culture medium+40 μL of DMSO+20 μL of the bacterial suspension) from a thawed biological strain (the biological strains are stored at −80° C. in glycerol).
(§3) The tubes were incubated at 37° C. for 24 hours at 100 rpm.
(§4) The microorganisms were handled under a type L2 laboratory fume cupboard and, before any handling, a UV cycle was programmed and only sterile material was used. […] The chemical compounds to be tested were prepared in a DMSO/methanol mixture (50/50) at a concentration of 5 mg/mL.
(§5) After 24 hours of incubation, a measurement of the optical density was taken using a spectrophotometer at 600 nm, collecting 100 μL of the bacterial suspension diluted in 900 μL of the sterile culture medium. This test required the use of a 96-well plate and the required volume of the microbial suspension to be seeded was calculated for an OD corresponding to a value equal to 0.01 in each well. In this plate, the first line corresponded to the negative control (195 μL of sterile culture medium in each well), the second line corresponded to the positive control (seeded culture medium supplemented with 2% of DMSO), and the third line was loaded twice with bacterial suspension; 8 μL of test product were placed in each well. Thereafter, a 0.5 cascade dilution was performed from this line.
(§6) The first column served as inhibition control. A sterile filter was then placed on the microplate, allowing the passage of gases but not of contaminants. The microplate was incubated at 37° C. under a humid atmosphere for 24 hours.
(§7) NB: The medium used is Mueller-Hinton (MH) medium for bacteria. All the tests were performed in duplicate.
(§8) After incubation, the filter was replaced with a transparent film, and an OD reading was then taken in an iEMS plate spectrophotometer at 620 nm. Calculation of the minimum inhibitory concentration (MIC) was performed.

[1] = test system: S. aureus Human ATCC 25923; test: MIC determination, S. aureus human ATCC 25923; assay type: cell-based; conditions: Staphylococcus aureus, ATCC25923; Gram-positive; Mueller-Hinton medium, 24 h at 37° C.
Protocol: as §1, §2, §3, §4, §5, §6, §7, §8

[2] = test system: S. intermedius Animal (1051997); test: MIC determination, S. intermedius animal (1051997); assay type: cell-based; conditions: Staphylococcus intermedius; Gram-positive; Mueller-Hinton medium, 24 h at 37° C.
Protocol: as §1, §2, §3, §4, §5, §6, §7, §8

E. coli Human ATCC 28922 = test: MIC determination, E. coli human ATCC 28922; assay type: cell-based; conditions: Escherichia coli, ATCC28922; Gram-negative; Mueller-Hinton medium, 24 h at 37° C.
Protocol: as §1, §2, §3, §4, §5, §6, §7, §8

[3] = test system: E. faecalis Human ATCC 29212; test: MIC determination, E. faecalis human ATCC 29212; assay type: cell-based; conditions: Enterococcus faecalis, ATCC29212; Gram-positive; Mueller-Hinton medium, 24 h at 37° C.
Protocol: as §1, §2, §3, §4, §5, §6, §7, §8

CHO-K1 cells = test: WST1 cytotoxicity test on CHO-K1 cells; assay type: cell-based, Chinese hamster; conditions: Cricetulus griseus, read-out: IC50 (μg/mL) CHO
Protocol: Test WST1 was used to measure the cytotoxic activity of the products. This is a colorimetric test which makes it possible to measure the viability and the degree of cell proliferation. It is based on cleavage of the colorless tetrazolium salts WST-1 (4-[3-(4-iodophenyl)-2-(4-nitrophenyl)-2H-5-tetrazolio]-1,3-benzene disulfonate) with mitochondrial dehydrogenases to the yellow-colored formazan derivative, which may be quantified by spectrophotometry at 420-480 nm.
The WST1 test was performed on Chinese hamster ovary cells. The CHO-K1 cells (ATCC, USA) are kept in culture in McCoy's 5A medium supplemented with 10% fetal calf serum, 2 mM of L-glutamine and a mixture of penicillin-streptomycin (100 U/ml: 10 μg/ml). The culture is incubated at 37° C. under an atmosphere enriched in CO2 (5%), and subcultured every two days.
The cells are transferred into 96-well plates (25000 cells/mL) in whole McCoy's 5A medium, and maintained for 24 hours at 37° C. under a humid atmosphere enriched in CO2 (5%). Increasing concentrations of test products are added to the wells in double tests and 8 growth controls containing the cells in the medium alone are included in each series of tests. After 24 hours at 37° C. (5% CO2), the culture medium is removed, the cells are rinsed in phosphate buffer (PBS) and 50 μL of PBS containing 10% of reagent WST1 are added to each well. After 20 minutes of incubation at 37° C., the results are read by spectrophotometry at 450 nm.
The results are expressed in dose-response relationships, modeled by nonlinear regression analysis using the TableCurve software. The 50% inhibitory concentration (IC50) represents the concentration of product that is capable of reducing the cell viability by 50%.

[4] = test system: P. aeruginosa Animal (1051575); test: MIC determination, P. aeruginosa animal (1051575); assay type: cell-based; conditions: Pseudomonas aeruginosa; Gram-negative; Mueller-Hinton medium, 24 h at 37° C.
Protocol: as §1, §2, §3, §4, §5, §6, §7, §8

S. aureus Animal (340) = test: MIC determination, S. aureus animal (340); assay type: cell-based; conditions: Staphylococcus aureus; Gram-positive; Mueller-Hinton medium, 24 h at 37° C.
Protocol: as §1, §2, §3, §4, §5, §6, §7, §8

[5] = test system: P. aeruginosa Human ATCC 27853; test: MIC determination, P. aeruginosa human ATCC 27853; assay type: cell-based; conditions: Pseudomonas aeruginosa, ATCC27853; Gram-negative; Mueller-Hinton medium, 24 h at 37° C.
Protocol: as §1, §2, §3, §4, §5, §6, §7, §8

P. aeruginosa (1051575) [6] = test: Potentiation of chloramphenicol activity (combination MIC); assay type: cell-based, Pseudomonas aeruginosa; conditions: chloramphenicol 2 μg/mL; concentration of compound required to restore antibiotic activity
Protocol: This method requires the use of a 96-well plate: 100 μL of a liquid culture medium are placed in each well and then seeded with the microbial suspension prepared previously. The required volume to be seeded is calculated for an OD of 0.01, which corresponds to about 5×10^6 bacteria in each well. In this plate, the first line corresponds to a negative control (200 μL of sterile culture medium in each well), the second line corresponds to a positive control (100 μL of sterile culture medium+100 μL of the bacterial suspension), and the third line contains 192 μL of culture medium; 8 μL of compound of formula (I) to be tested are placed in each well. Thereafter, a cascade dilution is performed from this line. […] 92 μL of bacterial suspension are then added to lines 3 to 8. The results are read (the determination of the MIC (2 μg/mL of doxycycline) in the presence of X g/mL of compound of formula (I)) after 24 hours of incubation at 37° C. under a humid atmosphere. After 24 hours of incubation at 37° C., 40 μL of nitro tetrazolium iodide are added to each well to reveal the presence of live bacteria by staining the medium pink.
The procedure is identical to that indicated in Example 5 above. […]
(§9) The results are given in table V. They indicate the concentration of compound of formula (I) required to be able to restore the activity of the antibiotic under consideration.

P. aeruginosa (1051575) [7] = test: Potentiation of erythromycin activity (combination MIC); assay type: cell-based, Pseudomonas aeruginosa; conditions: erythromycin 2 μg/mL; concentration of compound required to restore antibiotic activity
Protocol: This method requires the use of a 96-well plate: 100 μL of a liquid culture medium are placed in each well and then seeded with the microbial suspension prepared previously. The required volume to be seeded is calculated for an OD of 0.01, which corresponds to about 5×10^6 bacteria in each well. In this plate, the first line corresponds to a negative control (200 μL of sterile culture medium in each well), the second line corresponds to a positive control (100 μL of sterile culture medium+100 μL of the bacterial suspension), and the third line contains 192 μL of culture medium; 8 μL of compound of formula (I) to be tested are placed in each well. Thereafter, a cascade dilution is performed from this line. L of a doxycycline solution (1 mg dissolved in 20 mL) are then added to each well of lines 3 to 8 to obtain a final antibiotic concentration of 2 μg/mL. 92 μL of bacterial suspension are then added to lines 3 to 8. The results are read (the determination of the MIC (2 μg/mL of doxycycline) in the presence of X g/mL of compound of formula (I)) after 24 hours of incubation at 37° C. under a humid atmosphere. After 24 hours of incubation at 37° C., 40 μL of nitro tetrazolium iodide are added to each well to reveal the presence of live bacteria by staining the medium pink.
The procedure is identical to that indicated in Example 5 above. 8 μL of an antibiotic solution under consideration (1 mg dissolved in 20 mL) are added to obtain a final antibiotic concentration of 2 μg/mL instead of 8 μL of a doxycycline solution.
as §9

P. aeruginosa (1051575) [8] = test: Potentiation of doxycycline activity (combination MIC); assay type: cell-based, Pseudomonas aeruginosa; conditions: in presence of doxycycline 2 μg/mL; 24 hours at 37° C.

SMILES	MIC (E. coli Animal (1956))	MIC [1]	MIC [2]	MIC (E. coli Human ATCC 28922)	MIC [3]	IC50 (CHO-K1 cells; Table III, WST1 test, CHO-K1 cells, 24 hours)	MIC [4]	MIC (S. aureus Animal (340))	MIC [5]	MIC P. aeruginosa (1051575) compound + chloramphenicol (P. aeruginosa (1051575) [6])	MIC P. aeruginosa (1051575) compound + erythromycin (P. aeruginosa (1051575) [7])	MIC - P. aeruginosa (1051575): content of compound of formula (I) to restore the doxycycline activity (at 2 μg/mL) (P. aeruginosa (1051575) [8])	IC50 (CHO-K1 cells; CHO-K1, 24 h)
CC(C)NC(=O)CC[C@@H](C)[C@H]1CCC2C3C(C[C@H](O)[C@@]21C)[C@@]1(C)CC[C@H](NCCNCCNCCNCCNCCN)CC1C[C@H]3O (stereo partly drawn) [(21), 3β-(pentaethylenehexamine)-N-isopropylcholamide]	30 µg/mL (≈ 45.2 µM)	17 µg/mL (≈ 25.6 µM)	8 µg/mL (≈ 12 µM)	130 µg/mL (≈ 196 µM)	30 µg/mL (≈ 45.2 µM)	60 µg/mL (≈ 90.4 µM)	30 µg/mL (≈ 45.2 µM)	17 µg/mL (≈ 25.6 µM)	130 µg/mL (≈ 196 µM)	8 µg/mL	30 µg/mL		
CC(C)N(C(=O)CC[C@@H](C)[C@H]1CCC2C3C(CC[C@@]21C)[C@@]1(C)CC[C@H](NCCCNCCCN)CC1C[C@H]3O)C(C)C (stereo partly drawn) [(37), 3β-norspermidino-N-diisopropylchenodeoxycholamide]	4 µg/mL (≈ 6.79 µM)	4 µg/mL (≈ 6.79 µM)	1 µg/mL (≈ 1.7 µM)	15 µg/mL (≈ 25.5 µM)	4 µg/mL (≈ 6.79 µM)		15 µg/mL (≈ 25.5 µM)	2 µg/mL (≈ 3.4 µM)	30 µg/mL (≈ 50.9 µM)	2 µg/mL	7 µg/mL	2 µg/mL	35 µg/mL (≈ 59.4 µM)
CC(C)NC(=O)CC[C@@H](C)[C@H]1CCC2C3CCC4C[C@@H](NCCCN(CCCN)CCCN)CC[C@]4(C)C3C[C@H](O)[C@@]21C (stereo partly drawn) [(42), 3β-(tris(3-aminopropyl)amine)-N-isopropyldeoxycholamide]	30 µg/mL (≈ 49.7 µM)	4 µg/mL (≈ 6.62 µM)	1 µg/mL (≈ 1.66 µM)	> 120 µg/mL	30 µg/mL (≈ 49.7 µM)		60 µg/mL (≈ 99.3 µM)	4 µg/mL (≈ 6.62 µM)	30 µg/mL (≈ 49.7 µM)	2 µg/mL	8 µg/mL	1 µg/mL	40 µg/mL (≈ 66.2 µM)
